From patent publication US20040224979A1, “Treating obesity with selective androgen receptor modulators” (priority 2002, published 2004)

Assays:
[1] = Organ weights in intact male rats (tissue-selective anabolic activity); assay type: in vivo, Sprague-Dawley rats; conditions: 500 μg/day
leptin = assay: Serum leptin levels in intact male rats (ELISA) after SARM treatment by osmotic pump; conditions: for Leptin, percent of control / Normalized Leptin, percent of control: control = 100%; for Normalized Leptin: serum leptin normalized to body weight; for Leptin: serum, intact male rats, 500 μg/day s.c. osmotic pump
Procedure: All doses were delivered by subcutaneous placement of Alzet osmotic pumps.
Seven, 14 and 28 days after pump implantation, animals were exsanguinated under ketamine/xylazine anesthesia. Serum was collected, separated into 10 aliquots and stored at −80° C.
Serum concentrations of testosterone (T), leptin, Insulin and IGF-1 were determined by commercially available ELISA kits.

[2] = Whole body DEXA body composition (lean body mass, body fat) in ovariectomized female rats; assay type: in vivo, Sprague-Dawley rats; conditions: 3 mg/day s.c., 90 day time point
Procedure: Two hundred and thirty (230) female Sprague-Dawley rats (23 weeks of age) were used in these studies.
Animals were randomized (n=10 per group) into each of the treatment groups outlined in Table 2 below. Animals assigned to groups 6 through 23 were ovariectomized on day 0 of the experiment.
Drug administration with Compound VI, bicalutamide (an antiandrogen), and/or DHT commenced on day 0 or 90 with the compound of interest administered via daily subcutaneous injection (0.20 mL) and continued until day 120 or 210 of the study. Drug solutions were prepared daily by dissolving in DMSO and dilution with PEG 300. The percentage of DMSO was the same in all vehicles (17.6%), as determined based on the solubility of the test compounds.
Whole body DEXA images were collected up to 120 or 210 days after ovariectomy, as described in Table 2. Lean body mass (LBM), fat mass (FM) and total body mass (TBM) were determined at each time point.

androgen receptor (AR) = assay: In vitro androgen receptor binding affinity

| Structure (SMILES) | changes in organ weight [1] | decrease of serum leptin levels compared with the vehicle control (leptin; 2 w) [%] | decrease of serum leptin levels compared with the vehicle control (leptin; 4 w) [%] | Leptin, percent of control (leptin; 1 w) | Normalized Leptin, percent of control (leptin; 1 w) | Leptin, percent of control (leptin; 2 w) | Normalized Leptin, percent of control (leptin; 2 w) | Leptin, percent of control (leptin; 4 w) | Normalized Leptin, percent of control (leptin; 4 w) | Normalized Leptin (leptin; 1 w) | Normalized Leptin (leptin; 2 w) | Normalized Leptin (leptin; 4 w) | Leptin (leptin; 1 w) [ng/mL] | Leptin (leptin; 2 w) [ng/mL] | Leptin (leptin; 4 w) [ng/mL] | decrease in body fat as compared to the ovariectomized (OVX) control group [2] [%] | increase in lean mass as compared to the ovariectomized (OVX) control group [2] [%] | in vitro androgen receptor (AR) binding affinity (androgen receptor (AR)) |
| --- | --- | --- | --- | --- | --- | --- | --- | --- | --- | --- | --- | --- | --- | --- | --- | --- | --- | --- |
| C[C@](O)(COc1ccc(F)cc1)C(=O)Nc1ccc([N+](=O)[O-])c(C(F)(F)F)c1 [Compound VII] | tissue-selective anabolic activity | 36 | 22 | (84%) | (81%) | (64%) | (63%) | (77%) | (78%) | 5.80 ± 1.73 (pg/ml)/BW (g) | 5.47 ± 1.03 (pg/ml)/BW (g) | 13.82 ± 1.17 (pg/ml)/BW (g) | 1.45 ± 0.47 | 1.68 ± 0.29 | 4.89 ± 0.61 |  |  |  |
| CC(=O)Nc1ccc(OC[C@](C)(O)C(=O)Nc2ccc([N+](=O)[O-])c(C(F)(F)F)c2)cc1 [Compound VI] | tissue-selective anabolic activity |  |  | (96%) | (93%) | (107%) | (104%) | (104%) | (105%) | 6.65 ± 1.07 (pg/ml)/BW (g) | 8.99 ± 0.99 (pg/ml)/BW (g) | 18.7 ± 4.2 (pg/ml)/BW (g) | 1.71 ± 0.31 | 2.81 ± 0.29 | 6.62 ± 1.12 | 3.6 | 9 | high |
| CCC(=O)O[C@H]1CC[C@H]2[C@@H]3CCC4=CC(=O)CC[C@]4(C)[C@H]3CC[C@]12C [TP, testosterone propionate, reference compound] |  |  |  | (102%) | (93%) | (84%) | (92%) | (92%) | (90%) | 6.67 ± 1.96 (pg/ml)/BW (g) | 7.04 ± 1.97 (pg/ml)/BW (g) | 16.0 ± 1.7 (pg/ml)/BW (g) | 1.74 ± 0.53 | 2.19 ± 0.67 | 5.89 ± 0.77 |  |  |  |
